Assay results taken from patent US20070149916A1, “Dry matrices as drug reservoirs in electrotransport applications” (ALZA CORPORATION, priority 2005, published 2007).

Key:
[1] = aqueous solutions of apomorphine; cited from earlier work
[2] = Stability of apomorphine in aqueous solution and in PEO matrices; format: physicochemical; conditions: PEO films cast using 2:1 acetonitrile:methanol; low formate or non-radiation crosslinked PEO; FIG. 4
[3] = transdermal electrotransport, FIGS. 5A and 5B
[4] = Stability of hydrocortisone hemisuccinate in PVOH hydrogels and PEO matrices (HPLC); format: physicochemical
Procedure: The stability of hydrocortisone hemisuccinate (HCHS), a hydrolytically unstable compound that forms hydrocortisone and succinic acid via hydrolysis, in PVOH hydrogels and PEO matrices was investigated.
In a separate set of experiments (FIGS. 3A and 3B), the stability of HCHS in PVOH hydrogels and PEO matrices was examined at 23° C. and 40° C. over a period of three days.

Row | time over which formulations containing PEO were stable [2] | in vitro flux in PEO films compared with PVOH hydrogels [3] | Compound | time to rapid oxidation in aqueous solutions [1] | stability of HCHS in PEO matrices vs PVOH hydrogels ([4]; 40° C., over a period of three days, FIGS. 3A and 3B) | stability of HCHS in PEO matrix compared with PVOH hydrogel (HPLC chromatogram) ([4]; PEO film made using acetonitrile as the solvent vs PVOH hydrogel, FIG. 2)
1 | up to 4 weeks | comparable | CN1CCc2cccc3c2[C@H]1Cc1ccc(O)c(O)c1-3 [apomorphine] | less than 30 minutes | – | –
2 | – | – | hydrocortisone hemisuccinate [HCHS] | – | Improved stability | more stable in the PEO matrix than in the PVOH hydrogel
